Assays:
CHK1 kinase = biological target: T1, CHK1 kinase (Homo sapiens, UniProt O14757); assay: Measurement of the CHK1 kinase activity (flashplate / filter binding method); assay type: biochemical; conditions: class symbols defined in table footnotes
T1 construct: glutathione S-transferase (GST); made in house; host or cells: Sf21 (S. frugiperda) insect cells, baculovirus expression vector
T1 sequence (O14757 1-476): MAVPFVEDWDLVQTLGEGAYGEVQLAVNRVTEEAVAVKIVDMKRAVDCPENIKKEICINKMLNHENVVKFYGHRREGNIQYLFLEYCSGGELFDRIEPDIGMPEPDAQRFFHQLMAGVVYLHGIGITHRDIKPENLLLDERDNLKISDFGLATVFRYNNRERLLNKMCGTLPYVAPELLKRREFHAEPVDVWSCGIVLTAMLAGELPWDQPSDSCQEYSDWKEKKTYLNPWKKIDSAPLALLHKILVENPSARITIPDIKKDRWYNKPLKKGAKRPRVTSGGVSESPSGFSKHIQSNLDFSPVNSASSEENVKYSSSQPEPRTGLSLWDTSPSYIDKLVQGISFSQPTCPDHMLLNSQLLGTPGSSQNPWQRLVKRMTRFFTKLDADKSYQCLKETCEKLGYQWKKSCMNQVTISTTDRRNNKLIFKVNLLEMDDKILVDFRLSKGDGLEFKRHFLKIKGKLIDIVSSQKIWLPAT
Method: CHK1 kinase is expressed for the purposes of protein production in insect cells (Sf21; S. frugiperda) and subsequent purification by affinity chromatography as fusion protein with glutathione S-transferase in a baculovirus expression vector. The cultivation, infection and digestion of the cells as well as the purification of the fusion protein by column chromatography are carried out in accordance with manufacturer-oriented generic working instructions.
The kinase activity is measured using various available measurement systems. In the scintillation proximity method (Sorg et al., J. of. Biomolecular Screening, 2002, 7, 11-19), the flashplate method or the filter binding test, the radioactive phosphorylation of a protein or peptide as substrate is measured using radioactively labelled ATP (γ^32P-ATP, (γ^33P-ATP). In the case of the presence of an inhibitory compound, a reduced radioactive signal, or none at all, can be detected. Furthermore, homogeneous time-resolved fluorescence resonance energy transfer (HTR-FRET) and fluorescence polarisation (FP) technologies are useful as assay methods (Sills et al., J. of Biomolecular Screening, 2002, 191-214).
The test plates used are 384-well streptavidin-coated Flashplates Plus® from Perkin Elmer (Cat. No. SMP410A001 PK). The assay plate is equilibrated with 75 μl of assay buffer per well 30 min before commencement of the experiment. The buffer is sucked out before commencement of the experiment, and the components of the kinase reaction described below are pipetted onto the plate.
CHK1 kinase, a biotinylated substrate peptide (for example CHKtide: […]), is incubated with radioactively labelled ATP in the presence and absence of test substances at […] and a total volume of 50 μl. The reaction is terminated using 25 μl of a 0.2 M EDTA solution. After incubation for 30 min at room temperature, the supernatants are filtered off with suction, and the wells are washed three times with 100 μl of 0.9% NaCl solution each time. The measurement of the bound radioactivity is carried out by means of a scintillation measuring instrument (Topcount NXT, Perkin-Elmer).
The full value used is the inhibitor-free kinase reaction. This should be approximately in the range 3000-4000 cpm. The pharmacological zero value used is staurosporin in a final concentration of 0.1 μM. The inhibitory values (IC50) are determined using the program RS1_MTS ( ).
Kinase reaction conditions per well:
0.15 μg of CHKtide ([…])
50 μl total volume (1-fold assay buffer reaction conditions)
5-20 mU of CHK1 kinase (diluted in 20 mM MOPS pH7.5, 1 mM EDTA, 0.1% β-mercaptoethanol, 0.01% Brij-35, 5% glycerol, 1 mg/ml of BSA) are incubated for 30 min at room temperature in the presence of 30-200 μM CHKtide in 25.5 μl in 1-fold reaction buffer (8 mM MOPS pH7, 0.2 mM EDTA, 10 mM magnesium acetate, 0.02 mM γ^33P-ATP [500-1000 cpm/pmol]). The reaction is stopped using 5 μl of 0.5 M ortho-phosphoric acid and filtered through P81 filter plates. After the filter plates have been washed a number of times, the bound radioactivity is determined in a scintillation counter.

| Structure (SMILES) | IC50 (CHK1 kinase) | melting point |
| --- | --- | --- |
| NS(=O)(=O)c1cccc(CNc2c(Nc3ccc(O)c(-c4ccccn4)c3)c(=O)c2=O)c1 [Compound A12, 3-(3-Aminosulfonylbenzylamino)-4-(4-hydroxy-3-pyridin-2-ylphenylamino)cyclobut-3-ene-1,2-dione] | < 1000 nM | – |
| O=c1c(NCc2cccc(O)c2)c(Nc2ccc(O)c(-c3ccncc3)c2)c1=O [Compound A23, 3-(3-Hydroxybenzylamino)-4-(4-hydroxy-3-pyridin-4-ylphenylamino)cyclobut-3-ene-1,2-dione] | < 1000 nM | – |
| O=c1c(NCc2ccc(O)c(O)c2)c(Nc2ccc(O)c(-c3ccccn3)c2)c1=O [Compound A61, 3-(3,4-Dihydroxybenzylamino)-4-(4-hydroxy-3-pyridin-2-ylphenylamino)cyclobut-3-ene-1,2-dione] | < 100 nM | – |
| COc1cc(CNc2c(Nc3ccc(O)c(-c4ccccn4)c3)c(=O)c2=O)ccc1F [Compound A62, 3-(4-Fluoro-3-methoxybenzylamino)-4-(4-hydroxy-3-pyridin-2-ylphenylamino)cyclobut-3-ene-1,2-dione] | > 1000 nM | – |
| O=c1c(NCc2cc(O)cc(O)c2)c(Nc2ccc(O)c(-c3ccccn3)c2)c1=O [Compound A63, 3-(3,5-Dihydroxybenzylamino)-4-(4-hydroxy-3-pyridin-2-ylphenylamino)cyclobut-3-ene-1,2-dione] | < 100 nM | – |
| CC(=O)Nc1cccc(CNc2c(Nc3ccc(O)c(-c4ccccn4)c3)c(=O)c2=O)c1 [Compound A64, 3-(3-Acetamidobenzylamino)-4-(4-hydroxy-3-pyridin-2-ylphenylamino)cyclobut-3-ene-1,2-dione] | < 1000 nM | – |
| O=c1c(NCc2ccc(F)c(O)c2)c(Nc2ccc(O)c(-c3ccccn3)c2)c1=O [Compound A65, 3-(4-Fluoro-3-hydroxybenzylamino)-4-(4-hydroxy-3-pyridin-2-ylphenylamino)cyclobut-3-ene-1,2-dione] | < 1000 nM | – |
| NC(=O)c1cccc(CNc2c(Nc3ccc(O)c(-c4ccccn4)c3)c(=O)c2=O)c1 [Compound A66, 3-(3-Aminocarbonylbenzylamino)-4-(4-hydroxy-3-pyridin-2-ylphenylamino)cyclobut-3-ene-1,2-dione] | < 1000 nM | – |
| CNS(=O)(=O)c1cccc(CNc2c(Nc3ccc(O)c(-c4ccccn4)c3)c(=O)c2=O)c1 [Compound A67, 3-(3-Methylaminosulfonylbenzylamino)-4-(4-hydroxy-3-pyridin-2-ylphenylamino)cyclobut-3-ene-1,2-dione] | < 1000 nM | – |
| COc1ccc(Nc2c(NCc3cccc(O)c3)c(=O)c2=O)cc1-n1ccnc1 [Compound A72, 3-(3-Hydroxybenzylamino)-4-(3-imidazol-1-yl-4-methoxyphenylamino)cyclobut-3-ene-1,2-dione] | > 1000 nM | – |
| O=c1c(NCc2cccc(O)c2)c(Nc2ccc(O)c(-n3cccc3)c2)c1=O [Compound A73, 3-(3-Hydroxybenzylamino)-4-(4-hydroxy-3-pyrrol-1-ylphenylamino)cyclobut-3-ene-1,2-dione] | > 1000 nM | – |
| O=c1c(NCc2cccc(O)c2)c(Nc2ccc(O)c(-n3ccnc3)c2)c1=O [Compound A74, 3-(3-Hydroxybenzylamino)-4-(3-imidazol-1-yl-4-hydroxyphenylamino)cyclobut-3-ene-1,2-dione] | > 1000 nM | – |
| O=c1c(NCc2cccc(O)c2)c(Nc2ccc(O)c(-n3cccn3)c2)c1=O [Compound A75, 3-(3-Hydroxybenzylamino)-4-(4-hydroxy-3-pyrazol-1-ylphenylamino)cyclobut-3-ene-1,2-dione] | < 1000 nM | – |
| COc1cccc([C@@H](C)Nc2c(Nc3ccc(O)c(-n4cccn4)c3)c(=O)c2=O)c1 [Compound A76, 3-(4-Hydroxy-3-pyrazol-1-ylphenylamino)-4-[(R)-1-(3-methoxyphenyl)ethylamino]cyclobut-3-ene-1,2-dione] | < 1000 nM | – |

The remaining lines, values ahead:

| IC50 (CHK1 kinase) | melting point | Structure (SMILES) |
| --- | --- | --- |
| < 100 nM | 271 to 272 °C | O=c1c(NCc2cccc(O)c2)c(Nc2ccc(O)c(-c3ccccn3)c2)c1=O [Compound A1, 3-(3-hydroxybenzylamino)-4-(4-hydroxy-3-pyridin-2-ylphenylamino)cyclobut-3-ene-1,2-dione] |
| > 1000 nM | – | O=c1c(NCc2cccc(O)c2)c(Nc2ccc(O)c(-c3ccccc3)c2)c1=O [Compound A2, 3-(3-Hydroxybenzylamino)-4-(4-hydroxy-3-phenylphenylamino)cyclobut-3-ene-1,2-dione] |
| > 1000 nM | – | C[C@@H](Nc1c(Nc2ccc(O)c(-c3ccccn3)c2)c(=O)c1=O)c1ccccc1 [Compound A3, 3-(4-Hydroxy-3-pyridin-2-ylphenylamino)-4-[(R)-1-phenylethylamino]cyclobut-3-ene-1,2-dione] |
| > 1000 nM | – | COc1cccc([C@@H](C)Nc2c(Nc3ccc(O)c(-c4ccccn4)c3)c(=O)c2=O)c1 [Compound A4, 3-(4-Hydroxy-3-pyridin-2-ylphenylamino)-4-[(R)-1-(3-methoxyphenyl)ethylamino]cyclobut-3-ene-1,2-dione] |
| < 100 nM | – | C[C@@H](Nc1c(Nc2ccc(O)c(-c3ccccn3)c2)c(=O)c1=O)c1cccc(O)c1 [Compound A5, 3-(4-Hydroxy-3-pyridin-2-ylphenylamino)-4-[(R)-1-(3-hydroxyphenyl)ethylamino]cyclobut-3-ene-1,2-dione] |
| > 1000 nM | – | C[C@@H](Nc1c(Nc2cccc(-c3ccccn3)c2)c(=O)c1=O)c1cccc(O)c1 [Compound A6, 3-(3-Pyridin-2-ylphenylamino)-4-[(R)-1-(3-hydroxyphenyl)ethylamino]cyclobut-3-ene-1,2-dione] |
| > 1000 nM | – | C[C@H](Nc1c(Nc2ccc(O)c(-c3ccccn3)c2)c(=O)c1=O)c1cccc(O)c1 [Compound A10, 3-(4-Hydroxy-3-pyridin-2-ylphenylamino)-4-[(S)-1-(3-hydroxyphenyl)ethylamino]cyclobut-3-ene-1,2-dione] |
| > 1000 nM | – | COc1cccc([C@H](C)Nc2c(Nc3ccc(O)c(-c4ccccn4)c3)c(=O)c2=O)c1 [Compound A59, 3-(4-Hydroxy-3-pyridin-2-ylphenylamino)-4-[(S)-1-(3-methoxyphenyl)ethylamino]cyclobut-3-ene-1,2-dione] |
| < 1000 nM | – | O=c1c(NCCc2cccc(O)c2)c(Nc2ccc(O)c(-c3ccccn3)c2)c1=O [Compound A60, 3-[2-(3-Hydroxyphenyl)ethylamino]-4-(4-hydroxy-3-pyridin-2-ylphenylamino)cyclobut-3-ene-1,2-dione] |
| < 1000 nM | – | CN(Cc1cccc(O)c1)c1c(Nc2ccc(O)c(-c3ccccn3)c2)c(=O)c1=O [Compound A68, 3-[(3-Hydroxybenzyl)methylamino]-4-(4-hydroxy-3-pyridin-2-ylphenylamino)cyclobut-3-ene-1,2-dione] |
